Assay results published in BindingDB's records for doi:10.1016/j.cbi.2005.11.002 (Laboratoire De Pharmacologie-Toxicologie Inra, 2006).

Target: ATP-binding cassette sub-family C member 2 (Homo sapiens, UniProt Q92887)
Experiment: TP_TRANSPORTER: inhibition of ATPase activity in Sf9 cells (membrane vesicles)

Chain of ATP-binding cassette sub-family C member 2 (Q92887 whole entry): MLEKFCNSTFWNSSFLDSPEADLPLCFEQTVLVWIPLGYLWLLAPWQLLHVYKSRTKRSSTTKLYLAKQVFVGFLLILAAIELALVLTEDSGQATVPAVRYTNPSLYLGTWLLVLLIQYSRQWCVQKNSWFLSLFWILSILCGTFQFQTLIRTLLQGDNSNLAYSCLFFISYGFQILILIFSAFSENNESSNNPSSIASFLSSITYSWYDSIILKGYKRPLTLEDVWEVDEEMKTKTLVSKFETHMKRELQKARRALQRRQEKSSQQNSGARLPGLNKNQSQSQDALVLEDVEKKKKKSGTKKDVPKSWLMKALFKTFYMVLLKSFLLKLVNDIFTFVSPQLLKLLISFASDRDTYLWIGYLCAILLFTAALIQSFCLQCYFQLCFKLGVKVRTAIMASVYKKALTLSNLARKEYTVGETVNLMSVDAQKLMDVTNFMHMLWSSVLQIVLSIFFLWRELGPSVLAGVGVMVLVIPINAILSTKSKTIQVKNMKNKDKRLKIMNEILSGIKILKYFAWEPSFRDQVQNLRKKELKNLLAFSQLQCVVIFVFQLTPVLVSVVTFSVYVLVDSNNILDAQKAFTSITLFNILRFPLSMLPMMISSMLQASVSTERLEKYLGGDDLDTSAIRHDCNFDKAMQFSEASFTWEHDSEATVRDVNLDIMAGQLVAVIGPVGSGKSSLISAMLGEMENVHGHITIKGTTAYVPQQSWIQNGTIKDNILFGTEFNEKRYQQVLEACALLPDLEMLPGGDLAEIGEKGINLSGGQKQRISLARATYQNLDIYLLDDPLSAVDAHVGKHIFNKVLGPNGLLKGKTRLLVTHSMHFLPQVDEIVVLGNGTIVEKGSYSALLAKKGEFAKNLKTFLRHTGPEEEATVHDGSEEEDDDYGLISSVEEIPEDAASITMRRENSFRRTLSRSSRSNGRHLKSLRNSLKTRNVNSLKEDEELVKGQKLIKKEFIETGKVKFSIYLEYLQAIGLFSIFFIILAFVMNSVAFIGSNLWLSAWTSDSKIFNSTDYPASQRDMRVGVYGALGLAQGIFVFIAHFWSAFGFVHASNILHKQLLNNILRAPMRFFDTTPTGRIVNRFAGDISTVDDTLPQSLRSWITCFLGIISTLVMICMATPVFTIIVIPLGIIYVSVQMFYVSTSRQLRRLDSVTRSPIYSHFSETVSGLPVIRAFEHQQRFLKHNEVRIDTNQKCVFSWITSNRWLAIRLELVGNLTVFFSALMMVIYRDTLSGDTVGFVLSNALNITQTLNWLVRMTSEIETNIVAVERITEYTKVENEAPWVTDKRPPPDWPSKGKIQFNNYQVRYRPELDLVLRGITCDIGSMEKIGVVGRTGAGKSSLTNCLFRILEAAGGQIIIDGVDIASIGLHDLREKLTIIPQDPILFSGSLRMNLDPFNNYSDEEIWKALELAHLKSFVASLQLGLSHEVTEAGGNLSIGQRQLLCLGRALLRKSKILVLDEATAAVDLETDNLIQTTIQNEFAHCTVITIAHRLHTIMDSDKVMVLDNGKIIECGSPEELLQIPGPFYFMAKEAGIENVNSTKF

Structure (SMILES): CC[C@H](C)[C@H]1O[C@]2(CC[C@@H]1C)C[C@@H]1C[C@@H](C/C=C(\C)[C@@H](O[C@H]3C[C@H](OC)[C@@H](O[C@H]4C[C@H](OC)[C@@H](O)[C@H](C)O4)[C@H](C)O3)[C@@H](C)/C=C/C=C3\CO[C@@H]4[C@H](O)C(C)=C[C@@H](C(=O)O1)[C@]34O)O2 [ABAMECTIN]
- IC50: 18 µM
